Measurements: patent publication US9182397B2, “Immunoassay for detecting antibiotics” (DSM IP ASSETS B.V., priority 2011, dated 2015)

What was measured:
[1] = test system: Penicillin binding protein purified from Bacillus stearothermophilus; assay: Lateral flow test strip, penicillin G in spiked milk (Example 3); set-up: key to Intensity of the detection zone: 0: no intensity; 1: low intensity; 2: medium intensity; 3: high intensity
Experimental: (§1) A nitrocellulose HF90 membrane (Millipore; length 25 mm) was used as a detection region. The membrane was glued to a polystyrene laminated card (thickness 0.254 mm) 8 mm from the proximal end of the card. Next, the detection zone and control zone were applied onto the nitrocellulose membrane. The detection zone was applied by dispensing 1 mg/ml of a 7ACA-spacer-BSA conjugate in 20 mM KPO4-buffer (pH 7.5) with a Biodot Dispense workstation XYZ 3050 with frontline at 0.2 μl/cm. The control zone was applied by dispensing 0.15 mg/ml of an anti-IgY antibody in 20 mM KPO4-buffer (pH 7.5) comprising 0.675 mg/ml BSA, 5% w/v saccharose and 20 mM NaCl with a Biodot Dispense workstation XYZ 3050 with frontline at 0.8 μl/cm. After drying of the zones, the nitrocellulose membrane was blocked by spraying a solution comprising 10 mM Tris buffer (pH 8) comprising 2% w/v BSA and 0.05% w/v Tween-20 using a Biodot Dispense workstation XYZ 3050 with airjet 3×. The solution was sprayed onto the membrane at a distance of 2 mm below the detection zone. Thereafter, the sample receiving region (VF2 membrane from Millipore; length 1 cm) was glued at the proximal end of the card overlapping 2 mm with the nitrocellulose membrane. The absorbing region (10038 membrane from Millipore; length 20 mm) was glued at the distal end of the card with an overlap of 2 mm on the nitrocellulose membrane. The obtained cards were dried at 37° C. in a dry atmosphere (0% relative humidity). The card was cut in strips of 5.2 mm width and kept at a dry atmosphere (0% relative humidity).
(§2) Streptavidin-coated gold particles were synthesized by reacting colloidal gold (diameter 40 nm; 1 OD/ml) with 10 μg/ml streptavidin. Next, the obtained solution was concentrated by tangential flow filtration, washed and stored in a Tris buffer (pH 8) including NaCN. Penicillin binding protein purified from Bacillus stearothermophilus was biotinylated (1:4) with D-biotinyl-epsilon-aminocaproic acid-N-hydroxysuccinimide ester. Next, the penicillin binding protein-gold conjugate was synthesized by reacting 1.5 μg biotinylated penicillin binding protein with 1 OD streptavidin-coated gold particles for 1 hour, followed by centrifugation at 10,000×g for 5 minutes and resuspension of the obtained pellet in 45 mM bicarbonate buffer comprising 0.1% w/v Triton X-100 (pH 9.6).
IgY-coated gold particles were synthesized by reacting colloidal gold (diameter 40 nm; 1 OD/ml with 10 μg/ml IgY. Next, the obtained solution was centrifuged at 7,500×g for 10 minutes and the obtained pellet was resuspended in a Tris buffer (pH 8), washed by another round of centrifugation and resuspension of the obtained pellet in a Tris buffer (pH 8) and stored in a Tris-buffer (pH 8) including NaCN.
(§3) Thereafter, 140-200 mOD of the penicillin binding protein-gold conjugate and 5-20 mOD of the IgY-gold conjugate was solubilized in 100 μl buffer (80 mM Tris buffer comprising 0.01% w/v Triton-X-100, 0.4% w/v BSA, 5% v/v glycerin and 2% w/v saccharose (pH 8.5)) and 0.75 μl of the solution was dispensed per tube and dried for 12 hours at 40° C. The obtained tubes were sealed.
(§4) 150 μl of spiked milk was added per tube containing the dried conjugates. The concentration of penicillin G in the added milk varied from 0 to 4 ng/g (tube 1: 0 ng/g; […]; tube 2: 2 ng/g; tube 3: 3 ng/g; and tube 4: 4 ng/g). The obtained liquid composition was incubated for 2 minutes at 64° C. in an incubator. A test device was put into the tube and incubated for 3 minutes at 64° C. in the incubator. The result was read by eye.

[2] = test system: Penicillin binding protein purified from Bacillus stearothermophilus; assay: Detection of Penicillin G after storage of the test device at 4° C. (Example 25); set-up: key: 0: no intensity; 1: low intensity; 2: medium intensity; 3: high intensity
Experimental: as §1, §2, §3, §4
The test devices were produced as described above in Examples 1 and 2 and stored at 4° C. At different time periods after production, the test device was used to measure penicillin G. The test was done essentially as described in Example 3.

[3] = test system: Penicillin binding protein purified from Bacillus stearothermophilus; assay: Detection of Penicillin G after storage of the test device at −20° C. or 30° C. (Example 26); set-up: key: 0: no intensity; 1: low intensity; 2: medium intensity; 3: high intensity
Experimental: as §1, §2, §3, §4
The test devices were produced as described above in Examples 1 and 2 and stored at different temperatures (−20° C. and 30° C.). At different time periods after production, the test device was used to detect penicillin G. The test was done essentially as described in Example 3.

CC1(C)S[C@@H]2[C@H](NC(=O)Cc3ccccc3)C(=O)N2[C@H]1C(=O)O [Penicillin G]
significantly lower: Intensity of the detection zone compared with the intensity of the control zone ([1]; Penicillin G 4 ng/g in milk)
similar: Signal intensity of the detection zone compared with the signal intensity of the control zone ([1]; Penicillin G 2 ng/g in milk) | Signal intensity of the detection zone compared with the signal intensity of the control zone ([1]; Penicillin G 3 ng/g in milk)
clearly higher: Intensity of the detection zone compared with the intensity of the control zone ([1]; Penicillin G 1 ng/g in milk)
3: Intensity of the detection zone ([1]; Penicillin G 1 ng/g in spiked milk, read by eye)
2: Intensity of the detection zone ([1]; Penicillin G 2 ng/g in spiked milk, read by eye) | Intensity of the detection zone ([1]; Penicillin G 3 ng/g in spiked milk, read by eye) | Intensity of detection zone ([2]; Pen G 3 ppb, test device stored 0 weeks at 4° C.) | Intensity of detection zone ([2]; Pen G 3 ppb, test device stored 4 weeks at 4° C.) | Intensity of detection zone ([2]; Pen G 3 ppb, test device stored 7 weeks at 4° C.) | Intensity of detection zone ([2]; Pen G 3 ppb, test device stored 15 weeks at 4° C.) | Intensity of detection zone ([2]; Pen G 3 ppb, test device stored 18 weeks at 4° C.) | Intensity of detection zone ([2]; Pen G 3 ppb, test device stored 26 weeks at 4° C.) | Intensity of detection zone ([3]; Pen G 3 ppb, test device stored 0 days at 30° C.) | Intensity of detection zone ([3]; Pen G 3 ppb, test device stored 0 days at −20° C.) | Intensity of detection zone ([3]; Pen G 3 ppb, test device stored 3 days at 30° C.) | Intensity of detection zone ([3]; Pen G 3 ppb, test device stored 3 days at −20° C.) | Intensity of detection zone ([3]; Pen G 3 ppb, test device stored 7 days at 30° C.) | Intensity of detection zone ([3]; Pen G 3 ppb, test device stored 7 days at −20° C.) | Intensity of detection zone ([3]; Pen G 3 ppb, test device stored 28 days at −20° C.)
0: Intensity of detection zone ([3]; Pen G 4 ppb, test device stored 28 days at 30° C.)
≥ 2 ng/g: Concentration in the milk at which the signal of the detection zone clearly was less intense ([1]; spiked milk, read by eye)
1: Intensity of the detection zone ([1]; Penicillin G 4 ng/g in spiked milk, read by eye) | Intensity of detection zone ([2]; Pen G 4 ppb, test device stored 0 weeks at 4° C.) | Intensity of detection zone ([2]; Pen G 4 ppb, test device stored 4 weeks at 4° C.) | Intensity of detection zone ([2]; Pen G 4 ppb, test device stored 7 weeks at 4° C.) | Intensity of detection zone ([2]; Pen G 4 ppb, test device stored 15 weeks at 4° C.) | Intensity of detection zone ([2]; Pen G 4 ppb, test device stored 18 weeks at 4° C.) | Intensity of detection zone ([2]; Pen G 4 ppb, test device stored 26 weeks at 4° C.) | Intensity of detection zone ([3]; Pen G 3 ppb, test device stored 28 days at 30° C.) | Intensity of detection zone ([3]; Pen G 4 ppb, test device stored 0 days at 30° C.) | Intensity of detection zone ([3]; Pen G 4 ppb, test device stored 0 days at −20° C.) | Intensity of detection zone ([3]; Pen G 4 ppb, test device stored 3 days at 30° C.) | Intensity of detection zone ([3]; Pen G 4 ppb, test device stored 3 days at −20° C.) | Intensity of detection zone ([3]; Pen G 4 ppb, test device stored 7 days at 30° C.) | Intensity of detection zone ([3]; Pen G 4 ppb, test device stored 7 days at −20° C.) | Intensity of detection zone ([3]; Pen G 4 ppb, test device stored 28 days at −20° C.)
